Data published in article PMC9147171, “Pharmacokinetic/Pharmacodynamic Evaluation of a New Purine-2,6-Dione Derivative in Rodents with Experimental Autoimmune Diseases” (Pharmaceutics, 2022).

Columns and labels:
hrPDE1B = molecular target: T1, hrPDE1B (Homo sapiens, UniProt Q01064); experiment: PDE-Glo catalytic activity assay, PDE1B; assay type: biochemical
T1 construct: purchased SignalChem, Richmond, Canada
Experimental: The inhibitory activity of compound 34 against hrPDE1B and hrPDE3A (SignalChem, Richmond, Canada) was assessed using the PDE-Glo™ catalytic activity assay (Promega Corporation, Madison, WI, USA). It was performed on 384-well plates according to manufacturer’s instructions with slight modifications. Solutions of both PDEs were prepared by diluting their stock solutions in the PDE-Glo™ Reaction Buffer and aliquots of 6.5 μL were added to the wells. A stock solution of the tested compound was prepared in DMSO at a concentration of 10 mM and serially diluted with the same solvent. The obtained solutions were further diluted with PDE-Glo™ Reaction Buffer (1:5, v/v) and aliquots of 1 μL were transferred to the respective wells. Then, the mixture was incubated for 10 min at 30 °C on a heated plate shaker (Grant Instruments, Cambridge, United Kingdom). The reaction was started by the addition of 2.5 μL of a 0.2 μM cAMP solution to each well and the plate was incubated for 10 min at 30 °C on a heated plate shaker. Moreover, for each series, respective control reactions were performed: no-substrate, no-enzyme negative control reactions; no-enzyme positive control reactions containing substrate; and no-inhibitor positive control reactions containing both the substrate and PDE. After incubation, the reaction was stopped by adding 2.5 μL of the PDE-Glo™ Termination Buffer. A volume of 2.5 μL of the PDE-Glo™ Detection Buffer was transferred to each well and the plate was incubated for 20 min at room temperature. Finally, an aliquot of 10 μL of the PDE-Glo Kinase® Reagent was added to the wells. The plate was incubated for 10 min at room temperature and luminescence was measured with a luminometer (BMG Labtech, Ortenberg, Germany). For each inhibitor concentration, four independent measurements were performed. The resulting data were expressed as percent of an uninhibited control and plotted against the inhibitor concentration. The IC50 values were estimated by nonlinear regression using ADAPT5 software (BMSR, Los Angeles, CA, USA).

PDE7A = experiment: PDE inhibition assay, PDE7A (previous investigations); assay type: biochemical; conditions: ratio of IC50 values, vs GRMS-55

T1 sequence (Q01064 whole entry): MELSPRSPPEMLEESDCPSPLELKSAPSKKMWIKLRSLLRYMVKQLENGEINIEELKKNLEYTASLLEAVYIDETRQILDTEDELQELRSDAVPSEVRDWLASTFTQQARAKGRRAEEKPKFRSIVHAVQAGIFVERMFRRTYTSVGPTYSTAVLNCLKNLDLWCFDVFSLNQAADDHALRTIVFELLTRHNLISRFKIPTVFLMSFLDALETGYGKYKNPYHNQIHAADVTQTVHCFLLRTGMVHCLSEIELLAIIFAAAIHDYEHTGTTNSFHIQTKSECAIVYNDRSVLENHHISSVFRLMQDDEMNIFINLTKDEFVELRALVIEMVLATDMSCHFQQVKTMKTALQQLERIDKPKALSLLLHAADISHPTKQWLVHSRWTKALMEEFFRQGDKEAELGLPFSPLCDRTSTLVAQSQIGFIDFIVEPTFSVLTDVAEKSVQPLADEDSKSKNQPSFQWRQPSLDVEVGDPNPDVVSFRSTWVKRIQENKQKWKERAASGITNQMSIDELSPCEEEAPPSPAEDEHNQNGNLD

Cn1c(=O)c2c(nc(NCCc3ccccc3)n2CCCC(=O)NN=Cc2ccc(O)c(O)c2O)n(C)c1=O [Compound 34, 4-(1,3-dimethyl-2,6-dioxo-8-(phenethylamino)-2,3,6,7-tetrahydro-1H-purin-7-yl)-N′-(2,3,4-trihydroxybenzylidene)butanehydrazide]
IC50 (hrPDE1B; human recombinant PDE1B, CV% in brackets, read-out: IC50 (µM) Against PDE Isoform (CV%) PDE1B): 0.21 µM | times more potent than GRMS-55 in inhibiting PDE1B (hrPDE1B; ratio of IC50 values, vs GRMS-55): 12 times | inhibitory activity against PDE1B, times higher than that of vinpocetine (hrPDE1B; ratio of IC50 values, vs vinpocetine): around 36 times | times more potent as a PDE7A inhibitor compared to GRMS-55 (PDE7A): about two
